From ChEMBL document CHEMBL1671662, “In vitro activities of telavancin and six comparator agents against anaerobic bacterial isolates” (2009)

Legend:
[1] = tested on: Paeniclostridium sordellii; assay: Antibacterial activity against Clostridium sordellii by CLSI M11-A6 agar dilution method in presence of beta-lactamase inhibitor Sulbactam; type: functional; conditions: Paraclostridium sordellii
Clostridium disporicum = assay: Antibacterial activity against Clostridium disporicum by CLSI M11-A6 agar dilution method in presence of beta-lactamase inhibitor Sulbactam; type: functional
Clostridium glycolicum = assay: Antibacterial activity against Clostridium glycolicum by CLSI M11-A6 agar dilution method in presence of beta-lactamase inhibitor Sulbactam; type: functional; conditions: Terrisporobacter glycolicus
Fusobacterium mortiferum = assay: Antibacterial activity against Fusobacterium mortiferum by CLSI M11-A6 agar dilution method in presence of beta-lactamase inhibitor Sulbactam; type: functional
Clostridium sporogenes = assay: Antibacterial activity against Clostridium sporogenes by CLSI M11-A6 agar dilution method in presence of beta-lactamase inhibitor Sulbactam; type: functional
Clostridium perfringens = assay: Antibacterial activity against Clostridium perfringens by CLSI M11-A6 agar dilution method in presence of beta-lactamase inhibitor Sulbactam; type: functional
Collinsella aerofaciens = assay: Antibacterial activity against Colinsella aerofaciens by CLSI M11-A6 agar dilution method in presence of beta-lactamase inhibitor Sulbactam; type: functional
Flavonifractor plautii = assay: Antibacterial activity against Clostridium orbiscindens by CLSI M11-A6 agar dilution method in presence of beta-lactamase inhibitor Sulbactam; type: functional
[Clostridium] innocuum = Antibacterial activity against Clostridium innocuum by CLSI M11-A6 agar dilution method in presence of beta-lactamase inhibitor Sulbactam; type: functional
Prevotella oris = assay: Antibacterial activity against Prevotella oris by CLSI M11-A6 agar dilution method in presence of beta-lactamase inhibitor Sulbactam; type: functional; conditions: Segatella oris
[2] = tested on: Peptostreptococcus anaerobius; assay: Antibacterial activity against Peptostreptococcus anaerobius by CLSI M11-A6 agar dilution method in presence of beta-lactamase inhibitor Sulbactam; type: functional
[3] = tested on: Bacteroides thetaiotaomicron; assay: Antibacterial activity against Bacteroides thetaiotaomicron by CLSI M11-A6 agar dilution method in presence of beta-lactamase inhibitor Sulbactam; type: functional
Clostridium scindens = assay: Antibacterial activity against Clostridium scindens by CLSI M11-A6 agar dilution method in presence of beta-lactamase inhibitor Sulbactam; type: functional
[4] = Antibacterial activity against Bifidobacterium infantis by CLSI M11-A6 agar dilution method in presence of beta-lactamase inhibitor Sulbactam; type: functional, Bifidobacterium longum subsp. infantis; conditions: Bifidobacterium longum
Bifidobacterium bifidum = assay: Antibacterial activity against Bifidobacterium bifidum by CLSI M11-A6 agar dilution method in presence of beta-lactamase inhibitor Sulbactam; type: functional
Finegoldia magna = assay: Antibacterial activity against Finegoldia magna by CLSI M11-A6 agar dilution method in presence of beta-lactamase inhibitor Sulbactam; type: functional
Ruminococcus albus = assay: Antibacterial activity against Ruminococcus albus by CLSI M11-A6 agar dilution method in presence of beta-lactamase inhibitor Sulbactam; type: functional; conditions: Hominimerdicola alba
[5] = tested on: Clostridium sporosphaeroides; assay: Antibacterial activity against Clostridium sporosphaeroides by CLSI M11-A6 agar dilution method in presence of beta-lactamase inhibitor Sulbactam; type: functional; conditions: Faecalispora sporosphaeroides
[6] = tested on: Propionibacterium propionicum; assay: Antibacterial activity against Propionibacterium propionicus by CLSI M11-A6 agar dilution method in presence of beta-lactamase inhibitor Sulbactam; type: functional; conditions: Arachnia propionica
[7] = tested on: Sutterella wadsworthensis; assay: Antibacterial activity against Sutterella wadsworthensis by CLSI M11-A6 agar dilution method in presence of beta-lactamase inhibitor Sulbactam; type: functional
Clostridium beijerinckii = assay: Antibacterial activity against Clostridium beijerinckii by CLSI M11-A6 agar dilution method in presence of beta-lactamase inhibitor Sulbactam; type: functional
[8] = tested on: Clostridium paraputrificum; assay: Antibacterial activity against Clostridium paraputrificum by CLSI M11-A6 agar dilution method in presence of beta-lactamase inhibitor Sulbactam; type: functional
Clostridium leptum = assay: Antibacterial activity against Clostridium leptum by CLSI M11-A6 agar dilution method in presence of beta-lactamase inhibitor Sulbactam; type: functional
Bacteroides ovatus = assay: Antibacterial activity against Bacteroides ovatus by CLSI M11-A6 agar dilution method in presence of beta-lactamase inhibitor Sulbactam; type: functional
Hoylesella loescheii = assay: Antibacterial activity against Prevotella loescheii by CLSI M11-A6 agar dilution method in presence of beta-lactamase inhibitor Sulbactam; type: functional
Prevotella nigrescens = assay: Antibacterial activity against Prevotella nigrescens by CLSI M11-A6 agar dilution method in presence of beta-lactamase inhibitor Sulbactam; type: functional
[9] = tested on: Bifidobacterium pseudolongum; assay: Antibacterial activity against Bifidobacterium pseudolongum by CLSI M11-A6 agar dilution method in presence of beta-lactamase inhibitor Sulbactam; type: functional
Ruminococcus gnavus = assay: Antibacterial activity against Ruminococcus gnavus by CLSI M11-A6 agar dilution method in presence of beta-lactamase inhibitor Sulbactam; type: functional; conditions: Mediterraneibacter gnavus
Bifidobacterium dentium = assay: Antibacterial activity against Bifidobacterium dentium by CLSI M11-A6 agar dilution method in presence of beta-lactamase inhibitor Sulbactam; type: functional
Prevotella intermedia = assay: Antibacterial activity against Prevotella intermedia by CLSI M11-A6 agar dilution method in presence of beta-lactamase inhibitor Sulbactam; type: functional
Prevotella disiens = assay: Antibacterial activity against Prevotella disiens by CLSI M11-A6 agar dilution method in presence of beta-lactamase inhibitor Sulbactam; type: functional
Prevotella denticola = assay: Antibacterial activity against Prevotella denticola by CLSI M11-A6 agar dilution method in presence of beta-lactamase inhibitor Sulbactam; type: functional
[10] = tested on: Prevotella melaninogenica; assay: Antibacterial activity against Prevotella melaninogenica by CLSI M11-A6 agar dilution method in presence of beta-lactamase inhibitor Sulbactam; type: functional
Bifidobacterium longum = assay: Antibacterial activity against Bifidobacterium longum by CLSI M11-A6 agar dilution method in presence of beta-lactamase inhibitor Sulbactam; type: functional
Eggerthella lenta = assay: Antibacterial activity against Eggerthella lenta by CLSI M11-A6 agar dilution method in presence of beta-lactamase inhibitor Sulbactam; type: functional

CC1(C)S[C@@H]2[C@H](NC(=O)[C@H](N)c3ccccc3)C(=O)N2[C@H]1C(=O)O [AMPICILLIN]
16 µg/mL: MIC90 (Fusobacterium mortiferum) | MIC90 [3]
4 µg/mL: MIC50 [3] | MIC90 (Bacteroides ovatus)
0.25 µg/mL: MIC50 [1] | MIC50 (Clostridium disporicum) | MIC50 (Clostridium glycolicum) | MIC50 (Clostridium sporogenes) | MIC50 (Collinsella aerofaciens) | MIC50 (Flavonifractor plautii) | MIC50 [2] | MIC50 (Clostridium scindens) | MIC50 [4] | MIC50 (Bifidobacterium bifidum) | MIC50 (Finegoldia magna) | MIC50 [5] | MIC50 [6] | MIC [7] | MIC50 (Clostridium beijerinckii) | MIC50 [8] | MIC50 (Clostridium leptum) | MIC50 [9] | MIC50 (Bifidobacterium dentium) | MIC50 (Bifidobacterium longum) | MIC50 (Eggerthella lenta)
2 µg/mL: MIC50 (Fusobacterium mortiferum) | MIC90 (Prevotella oris) | MIC50 (Bacteroides ovatus) | MIC90 (Hoylesella loescheii) | MIC90 (Prevotella nigrescens) | MIC90 (Prevotella intermedia) | MIC90 (Prevotella disiens) | MIC90 (Prevotella denticola) | MIC90 [10]
≤ 0.12 µg/mL: MIC (Clostridium perfringens) | MIC50 (Clostridium perfringens) | MIC90 (Clostridium perfringens) | MIC50 (Prevotella oris) | MIC50 (Ruminococcus albus) | MIC50 (Hoylesella loescheii) | MIC50 (Prevotella nigrescens) | MIC50 (Ruminococcus gnavus) | MIC50 (Prevotella intermedia) | MIC50 (Prevotella disiens) | MIC50 (Prevotella denticola) | MIC50 [10]
1 µg/mL: MIC90 [1] | MIC90 (Clostridium disporicum) | MIC90 (Clostridium glycolicum) | MIC90 (Clostridium sporogenes) | MIC90 (Collinsella aerofaciens) | MIC90 (Flavonifractor plautii) | MIC90 (Clostridium scindens) | MIC90 [4] | MIC90 (Bifidobacterium bifidum) | MIC90 (Ruminococcus albus) | MIC90 [5] | MIC90 [6] | MIC90 (Clostridium beijerinckii) | MIC90 [8] | MIC90 (Clostridium leptum) | MIC90 [9] | MIC90 (Ruminococcus gnavus) | MIC90 (Bifidobacterium dentium) | MIC90 (Bifidobacterium longum) | MIC90 (Eggerthella lenta)
0.5 µg/mL: MIC50 ([Clostridium] innocuum) | MIC90 ([Clostridium] innocuum) | MIC90 [2] | MIC90 (Finegoldia magna)
